Test results: patent US8871815B2, “Therapeutic compounds” (Signature Therapeutics, Inc., priority 2007, dated 2014)

What was measured:
pigs [1] = test: Hemodynamic effects, arterial blood gas and serum chemistry in pigs, IV infusion; format: in vivo, pig; set-up: ABEc (acid base excess, corrected) / Glucose / Lactate: unit not given here; conditions: for ABEc (acid base excess, corrected) / Glucose / Lactate / Potassium / pC02 / pH / pO2: arterial blood, 0.384 mg/kg/min x 20 min IV
Description: Anesthesia was induced with isoflurane. Intravascular access was obtained from an ear vein. Each pig was intubated and mechanically ventilated.
ECG was monitored throughout the study. […] Body temperature was maintained at 37° C.
Arterial blood gas samples from pigs infused with Compound 1 were taken and analyzed for blood gas and serum chemistry values; mean values are reported in Table 4.

pigs [2] = test: in vivo; conditions: 384 μg per kg per min, pigs
Description: Experiments were performed on commercial farm-bred swine of either sex (mean weight 33.6 kg). Anesthesia was induced with isoflurane. Intravascular access was obtained from an ear vein. Each pig was intubated and mechanically ventilated. Tissue oxygenation was monitored using continuous pulse oximetry placed on the tongue. Ventilation was monitored using an inspired/expired gas analyzer that measured oxygen, carbon dioxide, and potent inhalation agent concentrations. Ventilator settings were adjusted as needed to maintain steady state.
ECG was monitored throughout the study. Arterial blood pressure was monitored through the cannulated left femoral artery. MAP, systolic and diastolic arterial pressures and heart rate were collected every 5 seconds. An internal jugular vein was cannulated with a pulmonary artery catheter for thermodilution estimates of cardiac output and blood temperature. Body temperature was maintained at 37° C. Instrumentation for EEG monitoring was accomplished using an adhesive electrode array over the fronto-occipital regions (Aspect Medical. Norwood, Mass., USA).
Metabolic and hemodynamic parameters for each group were compared at multiple time points using an unpaired two-tailed Student t test. To account for multiple comparisons and maintain the probability of a type I error below 0.05, P values less than 0.025 were considered significant.

CC[C@@H](C)c1cccc([C@H](C)CC)c1O [Compound 1]
metabolic alterations such as metabolic acidosis or increased lactate (pigs [1]; IV infusion, pigs): did not produce any significant metabolic alterations
reduction of cardiac output compared to propofol (pigs [1]; IV infusion, pigs): no significant difference
lowest HR measured (pigs [1]; IV infusion, pigs (Compound 1 0.384, propofol 0.750 mg/kg/min)): 129±6 bpm
MAP (mean arterial pressure) (pigs [1]; IV infusion, pigs (Compound 1 0.384, propofol 0.750 mg/kg/min), FIG. 1 in mm Hg): 106±3
ABEc (acid base excess, corrected) (pigs [1]; pigs, Min 0): 5.6
Glucose (pigs [1]; pigs, Min 0): 99.6
Lactate (pigs [1]; pigs, Min 0): 1.43
Potassium (pigs [1]; pigs, Min 0): 3.80
pC02 (pigs [1]; pigs, Min 0): 38.8
pH (pigs [1]; pigs, Min 0): 7.4861
pO2 (pigs [1]; pigs, Min 0): 390
ABEc (acid base excess, corrected) (pigs [1]; pigs, Min 4): 5.8
Glucose (pigs [1]; pigs, Min 4): 102.9
Lactate (pigs [1]; pigs, Min 4): 1.24
Potassium (pigs [1]; pigs, Min 4): 3.71
pC02 (pigs [1]; pigs, Min 4): 37.2
pH (pigs [1]; pigs, Min 4): 7.5027
pO2 (pigs [1]; pigs, Min 4): 410
ABEc (acid base excess, corrected) (pigs [1]; pigs, Min 20): 5.7
Glucose (pigs [1]; pigs, Min 20): 102.0
Lactate (pigs [1]; pigs, Min 20): 1.20
Potassium (pigs [1]; pigs, Min 20): 3.84
pC02 (pigs [1]; pigs, Min 20): 36.8
pH (pigs [1]; pigs, Min 20): 7.5066
pO2 (pigs [1]; pigs, Min 20): 419
ABEc (acid base excess, corrected) (pigs [1]; pigs, Min 80): 5.4
Glucose (pigs [1]; pigs, Min 80): 99.7
Lactate (pigs [1]; pigs, Min 80): 1.01
Potassium (pigs [1]; pigs, Min 80): 4.00
pC02 (pigs [1]; pigs, Min 80): 37.5
pH (pigs [1]; pigs, Min 80): 7.4943
pO2 (pigs [1]; pigs, Min 80): 402
ABEc (acid base excess, corrected) (pigs [1]; pigs, Min 140): 4.1
Glucose (pigs [1]; pigs, Min 140): 100.7
Lactate (pigs [1]; pigs, Min 140): 0.95
Potassium (pigs [1]; pigs, Min 140): 4.10
pC02 (pigs [1]; pigs, Min 140): 37.2
pH (pigs [1]; pigs, Min 140): 7.4803
pO2 (pigs [1]; pigs, Min 140): 399
ABEc (acid base excess, corrected) (pigs [1]; pigs, Min 200): 3.2
Glucose (pigs [1]; pigs, Min 200): 102.4
Lactate (pigs [1]; pigs, Min 200): 0.96
Potassium (pigs [1]; pigs, Min 200): 4.06
pC02 (pigs [1]; pigs, Min 200): 37.6
pH (pigs [1]; pigs, Min 200): 7.4641
pO2 (pigs [1]; pigs, Min 200): 356
IV infusion time producing maximal suppression of BIS (pigs [2]): 14.7 ± 3.8 min
